This is an account of results in US10189839B2, “Tricyclic imidazole compounds as inhibitors of tryptophan hydroxylase” (ACTELION PHARMACEUTICALS LTD, priority 2013, dated 2019).

The assay concerns the target T1, full length human TPH1 (Homo sapiens, UniProt P17752).
T1 construct: To generate the enzyme, full length human TPH1 is cloned into the plasmid pET20b(+); made in house; host or cells: E. coli
T1 sequence (P17752 1-444): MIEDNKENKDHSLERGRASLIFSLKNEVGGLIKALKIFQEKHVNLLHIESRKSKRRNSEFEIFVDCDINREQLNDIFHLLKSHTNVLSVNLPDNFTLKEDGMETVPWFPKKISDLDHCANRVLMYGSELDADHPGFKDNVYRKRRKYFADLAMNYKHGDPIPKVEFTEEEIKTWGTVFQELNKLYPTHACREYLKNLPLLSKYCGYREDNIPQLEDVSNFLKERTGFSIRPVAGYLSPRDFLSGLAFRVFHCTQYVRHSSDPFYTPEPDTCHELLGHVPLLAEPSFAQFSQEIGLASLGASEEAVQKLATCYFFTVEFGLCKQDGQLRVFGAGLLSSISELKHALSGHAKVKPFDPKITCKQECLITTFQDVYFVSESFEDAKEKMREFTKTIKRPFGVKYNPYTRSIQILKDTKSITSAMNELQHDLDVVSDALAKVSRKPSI
The experiment in a line: Biochemical in vitro assay using fluorescence readout (TPH1 enzyme activity). The note with it: Table 1, mean where determined several times. The procedure, abridged: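 IC50 (mean of repeats) derived from 5-hydroxy-L-tryptophan fluorescence at 540 nm (300 nm excitation) relative to vehicle, after perchloric acid stop. Reaction: 60 min, 15° C., pH 7.6 Tris-HCl, 40 μM L-tryptophan, 100 μM 6-methyltetrahydropterine, DTT, catalase, with 40-80 nM purified full-length human TPH1 from E. coli.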
As usually defined, the IC50 is the concentration at which inhibition is half-maximal. A lower IC50 goes with higher potency. For `CCNC(=O)Nc1nc(C2c3c(nc4n3CCN(C(C)=O)C4)CCN2C(=O)COc2ccc(N3CCOCC3)nc2Cl)cs1` (centres unmarked) [Example 5.11.1, 1-(4-(7-acetyl-2-(2-((2-chloro-6-morpholinopyridin-3-yl)oxy)acetyl)-1,2,3,4,6,7,8,9-octahydropyrido[4′,3′:4,5]imidazo[1,2-a]pyrazin-1-yl)thiazol-2-yl)-3-ethylurea], the half-maximal inhibitory concentration (IC50) was 100 nM. For `Cc1nc(C)c(C2c3c(nc4n3CCCC4)CCN2C(=O)COc2ccc(N3CCCS3(=O)=O)nc2Cl)s1` (centres unmarked) [Example 1.10.14, 2-((2-chloro-6-(1,1-dioxidoisothiazolidin-2-yl)pyridin-3-yl)oxy)-1-(1-(2,4-dimethylthiazol-5-yl)-3,4,6,7,8,9-hexahydroimidazo[1,2-a:5,4-c′]dipyridin-2(1H)-yl)ethanone] the value was 14 nM; for `CCc1nc(NS(C)(=O)=O)ccc1OCC(=O)N1CCc2nc3n(c2C1c1nc(-c2ccccc2)no1)CCCC3` (centres unmarked) [Example 1.17.1, N-(6-ethyl-5-(2-oxo-2-(1-(3-phenyl-1,2,4-oxadiazol-5-yl)-3,4,6,7,8,9-hexahydroimidazo[1,2-a:5,4-c′]dipyridin-2(1H)-yl)ethoxy)pyridin-2-yl)methanesulfonamide], 79 nM; for `Cc1nc(C)c(C2c3c(nc4n3CCCC4)CCN2C(=O)COc2ccc(C(=O)N(C)C3CC3)nc2Cl)s1` (centres unmarked) [Example 1.10.2, 6-chloro-N-cyclopropyl-5-(2-(1-(2,4-dimethylthiazol-5-yl)-3,4,6,7,8,9-hexahydroimidazo[1,2-a:5,4-c′]dipyridin-2(1H)-yl)-2-oxoethoxy)-N-methylpicolinamide], 82 nM.

`O=C(COc1ccc(N2CCOCC2)nc1Cl)N1CCc2nc3n(c2C1c1sccc1F)CCOC3` (centres unmarked) [Example 6.6.1, 2-((2-chloro-6-morpholinopyridin-3-yl)oxy)-1-(6-(3-fluorothiophen-2-yl)-3,4,8,9-tetrahydro-1H-pyrido[4′,3′:4,5]imidazo[2,1-c][1,4]oxazin-7(6H)-yl)ethanone] returned a concentration for half-maximal inhibition (IC50) of 8 nM.

With `Cc1nc(C(F)(F)F)sc1C1c2c(nc3n2CCCC3)CCN1C(=O)COc1ccc(NS(C)(=O)=O)nc1Cl` (centres unmarked) [Example 1.18.1, N-(6-chloro-5-(2-(1-(4-methyl-2-(trifluoromethyl)thiazol-5-yl)-3,4,6,7,8,9-hexahydroimidazo[1,2-a:5,4-c′]dipyridin-2(1H)-yl)-2-oxoethoxy)pyridin-2-yl)methanesulfonamide], the IC50 came to 126 nM. The figure for `CCc1nc(NS(C)(=O)=O)ccc1OCC(=O)N1CCc2nc3n(c2C1c1ccc(Cl)cc1F)CCS3` (centres unmarked) [Example 4.1.3, N-(5-(2-(5-(4-chloro-2-fluorophenyl)-2,3,7,8-tetrahydrothiazolo[2′,3′:2,3]imidazo[4,5-c]pyridin-6(5H)-yl)-2-oxoethoxy)-6-ethylpyridin-2-yl)methanesulfonamide] is 16 nM; for `Cc1ccc(C2c3c(nc4n3CCCC4)CCN2C(=O)COc2ccc(C(=O)N(C)C3CC3)nc2Cl)c(F)c1` (centres unmarked) [Example 1.2.3, 6-chloro-N-cyclopropyl-5-(2-(1-(2-fluoro-4-methyl-phenyl)-3,4,6,7,8,9-hexahydroimidazo[1,2-a:5,4-c′]dipyridin-2(1H)-yl)-2-oxoethoxy)-N-methylpicolinamide] it is 22 nM; for `CN(C)C(=O)c1ccc(OCC(=O)N2CCc3nc4n(c3C2c2ncc(Cl)cc2F)CCOC4)c(Cl)n1` (centres unmarked) [Example 6.4.2, 6-chloro-5-(2-(6-(5-chloro-3-fluoropyridin-2-yl)-3,4,8,9-tetrahydro-1H-pyrido[4′,3′:4,5]imidazo[2,1-c][1,4]oxazin-7(6H)-yl)-2-oxoethoxy)-N,N-dimethylpicolinamide] it is 76 nM. For `Cc1nc(C)c(C2c3c(nc4n3CCCC4)CCN2C(=O)COc2ccc(-c3ncco3)nc2Cl)s1` (centres unmarked) [Example 1.10.3, 2-((2-chloro-6-(oxazol-2-yl)pyridin-3-yl)oxy)-1-(1-(2,4-dimethylthiazol-5-yl)-3,4,6,7,8,9-hexahydroimi-dazo[1,2-a:5,4-c′]dipyridin-2(1H)-yl)ethanone] the value was 16 nM; for `CN(C)C(=O)c1ccc(OCC(=O)N2CCc3nc4n(c3C2c2ccc(C3CC3)cc2F)CCOC4)c(Cl)c1` (centres unmarked) [Example 6.2.2, 3-chloro-4-(2-(6-(4-cyclopropyl-2-fluorophenyl)-3,4,8,9-tetrahydro-1H-pyrido[4′,3′:4,5]imidazo[2,1-c][1,4]oxazin-7(6H)-yl)-2-oxoethoxy)-N,N-dimethylbenzamide], 13 nM. The figure for `CCc1nc(N2CCCS2(=O)=O)ccc1OCC(=O)N1CCc2nc3n(c2C1c1sc(C)nc1C)CCCC3` (centres unmarked) [Example 1.10.19, 1-(1-(2,4-dimethylthiazol-5-yl)-3,4,6,7,8,9-hexahydroimidazo[1,2-a:5,4-c′]dipyridin-2(1H)-yl)-2-((6-(1,1-dioxidoisothiazolidin-2-yl)-2-ethylpyridin-3-yl)oxy)ethan-1-one] is 11 nM; for `CS(=O)(=O)Nc1ccc(OC2(C(=O)N3CCc4nc5n(c4C3c3ccc(Cl)cc3F)CCCC5)CC2)c(Cl)n1` (centres unmarked) [Example 1.1.19, N-(6-chloro-5-(1-(1-(4-chloro-2-fluorophenyl)-1,2,3,4,6,7,8,9-octahydroimidazo[1,2-a:5,4-c′]dipyridine-2-carbonyl)cyclopropoxy)pyridin-2-yl)methanesulfonamide] it is 58 nM. Turning to `Cc1cnc(C2c3c(nc4n3CCCC4)CCN2C(=O)COc2ccc(NS(C)(=O)=O)nc2Cl)c(F)c1` (centres unmarked) [Example 1.6.1, N-(6-chloro-5-(2-(1-(3-fluoro-5-methylpyridin-2-yl)-3,4,6,7,8,9-hexahydroimidazo[1,2-a:5,4-c′]dipyridin-2(1H)-yl)-2-oxoethoxy)pyridin-2-yl)methanesulfonamide], the IC50 was determined as 58 nM.

With `O=C(NC1CC1)c1ccc(OCC(=O)N2CCc3nc4n(c3[C@@H]2c2ccc(Cl)cc2F)CCCC4)c(Cl)n1` [Example 1.1.16, (S)-6-chloro-5-(2-(1-(4-chloro-2-fluorophenyl)-3,4,6,7,8,9-hexahydroimidazo[1,2-a:5,4-c′]dipyridin-2(1H)-yl)-2-oxoethoxy)-N-cyclopropylpicolinamide], the half-inhibitory concentration (IC50) was found to be 12 nM. For `CN(C)c1ccc(OCC(=O)N2CCc3nc4n(c3C2c2ccc(Cl)cc2F)CCCC4)c(Cl)n1` (centres unmarked) [Example 1.1.21, 1-(1-(4-chloro-2-fluorophenyl)-3,4,6,7,8,9-hexahydroimidazo[1,2-a:5,4-c′]dipyridin-2(1H)-yl)-2-((2-chloro-6-(dimethylamino)pyridin-3-yl)oxy)ethan-1-one] the value was 13 nM. For `CC(=O)N1CCn2c(nc3c2C(c2ccc(C4CC4)cc2F)N(C(=O)COc2ccc(C(=O)N(C)C)nc2Cl)CC3)C1` (centres unmarked) [Example 5.2.13, 5-(2-(7-acetyl-1-(4-cyclopropyl-2-fluorophenyl)-3,4,6,7,8,9-hexahydropyrido[4′,3′:4,5]imidazo[1,2-a]pyrazin-2(1H)-yl)-2-oxoethoxy)-6-chloro-N,N-dimethylpicolinamide] the value was 4 nM.

`Cc1ccc(C2c3c(nc4n3CCNC4)CCN2C(=O)COc2ccc(CN3CCOCC3)cc2Cl)c(F)c1` (centres unmarked) [Example 5.12.2, 2-(2-chloro-4-(morpholinomethyl)phenoxy)-1-(1-(2-fluoro-4-methylphenyl)-3,4,6,7,8,9-hexahydropyrido[4′,3′:4,5]imidazo[1,2-a]pyrazin-2(1H)-yl)ethanone] came in with a 50% inhibitory concentration (IC50) of 52 nM.

Regarding `CCc1nc(NS(C)(=O)=O)ccc1OCC(=O)N1CCc2nc3n(c2C1c1cnc(-c2ccccc2)s1)CCCC3` (centres unmarked) [Example 1.16.1, N-(6-ethyl-5-(2-oxo-2-(1-(2-phenylthiazol-5-yl)-3,4,6,7,8,9-hexahydroimidazo[1,2-a:5,4-c′]dipyridin-2(1H)-yl)ethoxy)pyridin-2-yl)methanesulfonamide], the half-maximal inhibitory concentration (IC50) was found to be 225 nM. For `CCc1nc(NS(C)(=O)=O)ncc1OCC(=O)N1CCc2nc3n(c2C1c1ccc(C2CC2)cc1F)CCCC3` (centres unmarked) [Example 1.8.7, N-(5-(2-(1-(4-cyclopropyl-2-fluorophenyl)-3,4,6,7,8,9-hexahydroimidazo[1,2-a:5,4-c′]dipyridin-2(1H)-yl)-2-oxoethoxy)-4-ethylpyrimidin-2-yl)methanesulfonamide] the value was 54 nM; for `CCc1nc(C(=O)NC2CC2)ccc1OCC(=O)N1CCc2nc3n(c2C1c1ncc(C2CC2)cc1F)CCCC3` (centres unmarked) [Example 1.3.2, N-cyclopropyl-5-(2-(1-(5-cyclopropyl-3-fluoropyridin-2-yl)-3,4,6,7,8,9-hexahydroimidazo[1,2-a:5,4-c′]dipyridin-2(1H)-yl)-2-oxoethoxy)-6-ethylpicolinamide], 7 nM. The figure for `CCc1nc(NS(C)(=O)=O)ccc1OCC(=O)N1CCc2nc3n(c2C1c1sc(C)nc1C)CCCC3` (centres unmarked) [Example 1.10.13, N-(5-(2-(1-(2,4-dimethylthiazol-5-yl)-3,4,6,7,8,9-hexahydroimidazo[1,2-a:5,4-c′]dipyridin-2(1H)-yl)-2-oxoethoxy)-6-ethylpyridin-2-yl)methanesulfonamide] is 8 nM; for `COC(=O)c1ccc(C2c3c(nc4n3CCCC4)CCN2C(=O)COc2ccc(NS(C)(=O)=O)nc2Cl)c(F)c1` (centres unmarked) [Example 1.23.1, methyl-4-(2-(2-((2-chloro-6-(methylsulfonamido)pyridin-3-yl)oxy)acetyl)-1,2,3,4,6,7,8,9-octahydroimidazo[1,2-a:5,4-c′]dipyridin-1-yl)-3-fluorobenzoate] it is 21 nM.
